Our source for the IC50 values is US20180155344A1, “TRICYCLIC PIPERIDINE COMPOUNDS” (ACTELION PHARMACEUTICALS LTD, priority 2015, published 2018).

The target in the assay is T1, human TPH1 (Homo sapiens, UniProt P17752).
T1 sequence (P17752 1-444): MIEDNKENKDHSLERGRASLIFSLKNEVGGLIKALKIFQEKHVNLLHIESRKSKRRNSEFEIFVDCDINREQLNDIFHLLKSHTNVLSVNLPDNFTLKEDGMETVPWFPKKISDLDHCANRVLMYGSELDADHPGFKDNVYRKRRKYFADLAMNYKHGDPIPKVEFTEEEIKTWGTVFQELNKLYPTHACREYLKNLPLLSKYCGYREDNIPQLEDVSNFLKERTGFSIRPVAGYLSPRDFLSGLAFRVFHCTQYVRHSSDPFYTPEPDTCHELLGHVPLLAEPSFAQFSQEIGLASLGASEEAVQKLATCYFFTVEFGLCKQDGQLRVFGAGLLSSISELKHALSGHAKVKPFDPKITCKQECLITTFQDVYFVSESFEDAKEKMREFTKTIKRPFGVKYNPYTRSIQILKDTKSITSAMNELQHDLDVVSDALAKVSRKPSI
In words: biochemical. From the text:
Biochemical In Vitro Assay Using Fluorescence Readout
To generate the enzyme, full length human TPH1 is cloned into the plasmid pET20b(+) (Novagen) and expressed in E. coli. The bacterial cells are ruptured by sonication on ice and the lysate is cleared by centrifugation. The resulting protein in the pellet is re-extracted and TPH1 is purified from the obtained lysate by affinity chromatography using a pterin cosubstrate analog immobilized to the resin of the column. The protein is further purified by size exclusion chromatography to remove protein aggregates. The activity of TPH1 is determined by using a fluorescence assay. The enzyme activity assay is carried out at 15° C. with atmosphere oxygen for the duration of 60 minutes in a volume of 64 μl. The reaction is carried out in a 0.1 M Tris-HCl buffer, adjusted to pH 7.6, containing 1 mM DTT, 0.2 mg/mL catalase, 100 μM (±)-6-methyl-5,6,7,8-tetrahydropterine dihydrochloride, 40 μM L-tryptophan, and 40-80 nM of TPH1. The reaction is started by bringing together L-tryptophan with all the other reaction substituents and stopped by quenching with perchloric acid (HClO4). The amount of 5-hydroxy-L-tryptophan produced during the enzymatic reaction is determined by fluorescence readout. Fluorescence, as determined at 540 nm when excited at 300 nm wavelength, increases proportionally to the 5-hydroxy-L-tryptophan formed. Compounds are prepared as 10 mM stock solution in DMSO, then diluted in 384-well plates using DMSO followed by a transfer of the dilutions into the assay plate. Fluorescence is measured for each well and the fluorescence at 540 nm wavelength is compared to the fluorescence of the vehicle in place of compound. […] The calculated IC50 values may fluctuate depending on the daily biochemical assay performance. Fluctuations of this kind are known to those skilled in the art.
Usually IC50 stands for the concentration needed to halve the response being measured. The low end stands for inhibition by little substance, the high end for a need for much substance. The compound `COc1ccc(C2c3c(nc4cc(C(F)(F)F)ccn34)CCN2C(=O)COc2cnc3c(c2)ncn3C)cc1OC` (centres unmarked) [Example 3.1.23] yielded an IC50 of 0.382 µM.

`CC(C)c1noc(C2c3c(nc4cc(Cl)ccn34)CCN2C(=O)COc2ccc(N3CCOCC3)nc2Cl)n1` (centres unmarked) [Example 2.6.1, 1-(7-chloro-1-(3-isopropyl-1,2,4-oxadiazol-5-yl)-3,4-dihydroimidazo[1,2-a:5,4-c′]dipyridin-2(1H)-yl)-2-((2-chloro-6-morpholinopyridin-3-yl)oxy)ethan-1-one] registered an IC50 of 0.225 µM.

Turning to `COc1cccc(C2c3c(nc4cc(C(F)(F)F)ccn34)CCN2C(=O)COc2ccc3ccccc3c2)c1` (centres unmarked) [Example 3.32.1, 1-(1-(3-methoxyphenyl)-7-(trifluoromethyl)-3,4-dihydroimidazo[1,2-a:5,4-c′]dipyridin-2(1H)-yl)-2-(naphthalen-2-yloxy)ethan-1-one], the IC50 is 0.228 µM. This IC50 and that of the compound before are within 1.5-fold of each other.

Regarding `Cc1ccc(C2c3c(nc4cc(C(F)(F)F)ccn34)CCN2C(=O)COc2ccc(CN3CCOCC3)cc2Cl)cc1C` (centres unmarked) [Example 3.10.2, 2-(2-chloro-4-(morpholinomethyl)phenoxy)-1-(1-(3,4-dimethylphenyl)-7-(trifluoromethyl)-3,4-dihydroimidazo[1,2-a:5,4-c′]dipyridin-2(1H)-yl)ethan-1-one], the IC50 turned out to be 0.023 µM.

`COc1ccc(C2c3c(nc4cc(C(F)(F)F)ccn34)CCN2C(=O)COc2ccccc2C)cc1OC` (centres unmarked) [Example 3.1.5]: the IC50 came to 0.153 µM.

`CCc1ncc(C2c3c(nc4cc(C(F)(F)F)ccn34)CCN2C(=O)COc2ccc(CN3CCOCC3)cc2Cl)cn1` (centres unmarked) [Example 3.54.2, 2-(2-chloro-4-(morpholinomethyl)phenoxy)-1-(1-(2-ethylpyrimidin-5-yl)-7-(trifluoromethyl)-3,4-dihydroimidazo[1,2-a:5,4-c′]dipyridin-2(1H)-yl)ethan-1-one] displayed an IC50 of 0.415 µM.

The compound `COc1ccc(C2c3c(nc4cc(C(F)(F)F)ccn34)CCN2C(=O)COc2cccnc2C)cc1OC` (centres unmarked) [Example 3.1.16] yielded an IC50 of 0.266 µM. Compared with the last compound, the IC50 is about 1.6-fold lower.

Compound `O=C(COc1ccc[n+]([O-])c1Cl)N1CCc2nc3cc(C(F)(F)F)ccn3c2C1c1ccc(C2CC2)cc1F` (centres unmarked) [Example 3.5.4, 2-((2-chloro-1-(I1-oxidanyl)-1I4-pyridin-3-yl)oxy)-1-(1-(4-cyclopropyl-2-fluorophenyl)-7-(trifluoromethyl)-3,4-dihydroimidazo[1,2-a:5,4-c′]dipyridin-2(1H)-yl)ethan-1-one] had an IC50 of 0.21 µM.

Turning to `COc1ccc(C2c3c(nc4cc(C(F)(F)F)ccn34)CCN2C(=O)COc2ccc3ccccc3c2)cc1O` (centres unmarked) [Example 3.9.1, 1-(1-(3-hydroxy-4-methoxyphenyl)-7-(trifluoromethyl)-3,4-dihydroimidazo[1,2-a:5,4-c′]dipyridin-2(1H)-yl)-2-(naphthalen-2-yloxy)ethan-1-one], the half-inhibitory concentration (IC50) was found to be 0.045 µM.

Compound `CC(C)(O)c1ccc(C2c3c(nc4ccccn34)CCN2C(=O)COc2ccc(NS(C)(=O)=O)nc2Cl)c(F)c1` (centres unmarked) [Example 1.16.2, N-(6-chloro-5-(2-(1-(2-fluoro-4-(2-hydroxypropan-2-yl)phenyl)-3,4-dihydroimidazo[1,2-a:5,4-c′]dipyridin-2(1H)-yl)-2-oxoethoxy)pyridin-2-yl)methanesulfonamide] returned an IC50 of 0.546 µM.

As for `CCc1nc(C)ccc1OCC(=O)N1CCc2nc3ccccn3c2C1c1ncc(C2CC2)cc1F` (centres unmarked) [Example 1.12.3, 1-(1-(5-cyclopropyl-3-fluoropyridin-2-yl)-3,4-dihydroimidazo[1,2-a:5,4-c′]dipyridin-2(1H)-yl)-2-((2-ethyl-6-methylpyridin-3-yl)oxy)ethan-1-one], inhibition was half-maximal at 0.146 µM (IC50). Compared with the last compound, the IC50 is about 3.7-fold lower.

As for `O=C(COc1ccc(CN2CCOCC2)cc1Cl)N1CCc2nc3cc(C(F)(F)F)ccn3c2C1c1nc2ccccc2s1` (centres unmarked) [Example 3.44.2, 1-(1-(benzo[d]thiazol-2-yl)-7-(trifluoromethyl)-3,4-dihydroimidazo[1,2-a:5,4-c′]dipyridin-2(1H)-yl)-2-(2-chloro-4-(morpholinomethyl)phenoxy)ethan-1-one], the IC50 was determined as 0.023 µM.

Regarding `O=C(COc1ccc(CN2CCOCC2)cc1Cl)N1CCc2nc3cc(C(F)(F)F)ccn3c2C1c1ccc(OC(F)(F)F)cc1` (centres unmarked) [Example 3.27.1, 2-(2-chloro-4-(morpholinomethyl)phenoxy)-1-(1-(4-(trifluoromethoxy)phenyl)-7-(trifluoromethyl)-3,4-dihydroimidazo[1,2-a:5,4-c′]dipyridin-2(1H)-yl)ethan-1-one], the IC50 turned out to be 0.135 µM. This IC50 lies about 5.9-fold higher than the previous one.

As for `CCc1ncccc1OCC(=O)N1CCc2nc3cc(C(F)(F)F)ccn3c2C1c1ccc(OC)c(OC)c1` (centres unmarked) [Example 3.1.30, 1-(1-(3,4-dimethoxyphenyl)-7-(trifluoromethyl)-3,4-dihydroimidazo[1,2-a:5,4-c′]dipyridin-2(1H)-yl)-2-((2-ethylpyridin-3-yl)oxy)ethan-1-one], it took 0.036 µM to reach half-maximal inhibition (IC50).

For the compound `COc1ccc([C@@H]2c3c(nc4cc(Cl)ccn34)CCN2C(=O)COc2ccc(N3CCOCC3)cc2Cl)c(F)c1` [Example 2.3.4, 1-((1R)-7-chloro-1-(2-fluoro-4-methoxyphenyl)-3,10a-dihydroimidazo[1,2-a:5,4-c′]dipyridin-2(1H)-yl)-2-(2-chloro-4-morpholinophenoxy)ethan-1-one], half-maximal inhibition (IC50) required 0.012 µM.

`CS(=O)(=O)Nc1ccc(OCC(=O)N2CCc3nc4ccccn4c3C2c2ccc(Cl)cc2F)c(Cl)n1` (centres unmarked) [Example 1.4.7, N-(6-chloro-5-(2-(1-(4-chloro-2-fluorophenyl)-3,4-dihydroimidazo[1,2-a:5,4-c′]dipyridin-2(1H)-yl)-2-oxoethoxy)pyridin-2-yl)methanesulfonamide] gave an IC50 of 0.01 µM.

Regarding `CN(C)c1ccc(OCC(=O)N2CCc3nc4ccccn4c3C2c2ccc(Cl)cc2F)c(Cl)n1` (centres unmarked) [Example 1.4.12, 1-(1-(4-chloro-2-fluorophenyl)-3,4-dihydroimidazo[1,2-a:5,4-c′]dipyridin-2(1H)-yl)-2-((2-chloro-6-(dimethylamino)pyridin-3-yl)oxy)ethan-1-one], the IC50 came to 0.058 µM.

As to `O=C(COc1ccc2ccccc2c1)N1CCc2nc3cc(C(F)(F)F)ccn3c2C1c1cccnc1F` (centres unmarked) [Example 3.2.2, 1-(1-(2-fluoropyridin-3-yl)-7-(trifluoromethyl)-3,4-dihydroimidazo[1,2-a:5,4-c′]dipyridin-2(1H)-yl)-2-(naphthalen-2-yloxy)ethan-1-one], half-maximal inhibition (IC50) required 0.082 µM.

Consider `COc1ccc(C2c3c(nc4ccccn34)CCN2C(=O)COc2ccc(NS(C)(=O)=O)nc2Cl)c(F)c1` (centres unmarked) [Example 1.3.2, N-(6-chloro-5-(2-(1-(2-fluoro-4-methoxyphenyl)-3,4-dihydroimidazo[1,2-a:5,4-c′]dipyridin-2(1H)-yl)-2-oxoethoxy)pyridin-2-yl)methanesulfonamide], for which the IC50 was determined as 0.04 µM.

Compound `CCc1nc(C)ccc1OCC(=O)N1CCc2nc3cc(C(F)(F)F)ccn3c2C1c1ccc(Cl)cc1F` (centres unmarked) [Example 3.4.4, 1-(1-(4-chloro-2-fluorophenyl)-7-(trifluoromethyl)-3,4-dihydroimidazo[1,2-a:5,4-c′]dipyridin-2(1H)-yl)-2-((2-ethyl-6-methylpyridin-3-yl)oxy)ethan-1-one] showed an IC50 of 0.021 µM.

`COc1cc(C2c3c(nc4cc(C(F)(F)F)ccn34)CCN2C(=O)COc2ccc3ccccc3c2)ccc1O` (centres unmarked) [Example 3.11.1, 1-(1-(4-hydroxy-3-methoxyphenyl)-7-(trifluoromethyl)-3,4-dihydroimidazo[1,2-a:5,4-c′]dipyridin-2(1H)-yl)-2-(naphthalen-2-yloxy)ethan-1-one] registered an IC50 of 0.318 µM.

The compound `Cc1nc(N(C)C)ccc1OCC(=O)N1CCc2nc3ccccn3c2C1c1ccc(C2CC2)cc1F` (centres unmarked) [Example 1.5.3, 1-(1-(4-cyclopropyl-2-fluorophenyl)-3,4-dihydroimidazo[1,2-a:5,4-c′]dipyridin-2(1H)-yl)-2-((6-(dimethylamino)-2-methylpyridin-3-yl)oxy)ethan-1-one] came in with an IC50 of 0.042 µM.

For `CCc1cc2nc3c(n2cc1C)C(c1ccc(OC)c(OC)c1)N(C(=O)COc1ccc2ccccc2c1)CC3` (centres unmarked) [Example 6.1.2, 1-(1-(3,4-dimethoxyphenyl)-7-ethyl-8-methyl-3,4-dihydroimidazo[1,2-a:5,4-c′]dipyridin-2(1H)-yl)-2-(naphthalen-2-yloxy)ethan-1-one], 0.009 µM corresponded to half-maximal inhibition (IC50).
